# Results taken from patent US20140171357A1, “VANCOMYCIN DERIVATIVES” (Seachald Pharmaceuticals, Inc., priority 2011, published 2014).
# What was measured:
# [1] = system: VanB vancomycin-resistant E. faecium (10); assay: MIC broth microdilution, VanB E. faecium; details: E. faecium, VanB (10)
# [2] = system: VanB vancomycin-resistant E. faecalis (12); assay: MIC broth microdilution, VanB E. faecalis; details: E. faecalis, VanB (12)
# [3] = system: VanC enterococci (22); assay: MIC broth microdilution, vanC-carrying enterococci; details: VanC enterococci (22)
# [4] = system: methicillin-resistant S. aureus (MRSA, 22); assay: MIC broth microdilution, MRSA; details: for MIC 50% / MIC 90%: MRSA (22)
# [5] = system: vancomycin-intermediate S. aureus (VISA, 5); assay: MIC broth microdilution, VISA
# [6] = system: Staphylococcus aureus (65 strains); assay: MIC broth microdilution, S. aureus all isolates; details: S. aureus (65), all resistance subsets
# [7] = system: vancomycin-resistant S. aureus (VRSA, 6); assay: MIC broth microdilution, VRSA
# [8] = system: methicillin-susceptible S. aureus (MSSA, 22); assay: MIC broth microdilution, MSSA; details: for MIC 50% / MIC 90%: MSSA (22)
# [9] = system: VanA vancomycin-resistant E. faecalis (11); assay: MIC broth microdilution, VanA E. faecalis; details: E. faecalis, VanA (11)
# [10] = system: Staphylococcus epidermidis (43 strains); assay: MIC broth microdilution, S. epidermidis; details: S. epidermidis (43)
# [11] = system: S. aureus ATCC 25923; assay: Neutropenic murine thigh infection model; details: for AUCc-t (AUC difference between control and treated animals): 24 h time kill; for in vivo efficacy against S. aureus (in words): neutropenic soft tissue infection model
# [12] = system: VanA vancomycin-resistant E. faecium (10); assay: MIC broth microdilution, VanA E. faecium; details: E. faecium, VanA (10)
# [13] = system: β-hemolytic streptococci (23); assay: MIC broth microdilution, β-hemolytic streptococci; details: for fold more potent than teicoplanin and daptomycin / fold more potent than vancomycin: β-hemolytic streptococci; for MIC 50% / MIC 90%: β-hemolytic streptococci (23), MHB + lysed horse blood
# [14] = system: vancomycin-susceptible E. faecium (21); assay: MIC broth microdilution, vancomycin-susceptible E. faecium; details: E. faecium, vancomycin-susceptible (21)
# [15] = system: heterogeneous VISA (hVISA, 10); assay: MIC broth microdilution, hVISA
# [16] = system: vancomycin-susceptible E. faecalis (23); assay: MIC broth microdilution, vancomycin-susceptible E. faecalis; details: E. faecalis, vancomycin-susceptible (23)
# [17] = system: B. anthracis Sterne 105; format: cell-based, Bacillus anthracis; details: Tween 80 0.002% medium, serum condition not stated
# [18] = system: S. pneumoniae (22); assay: MIC broth microdilution, S. pneumoniae; details: for MIC 50% / MIC 90%: S. pneumoniae (22), MHB + lysed horse blood
# [19] = 1 mg/kg single intraperitoneal dose
# [20] = 4 mg/kg single intraperitoneal dose
# [21] = 16 mg/kg single intraperitoneal dose
smiles,measurement,setting,value
CCCCCCCCCCNCCNC1(C)CC(OC2C(Oc3c4cc5cc3Oc3ccc(cc3Cl)C(O)C3NC(=O)C(NC(=O)C5NC(=O)C(CC(N)=O)NC(=O)C(NC(=O)C(CC(C)C)NC)C(O)c5ccc(c(Cl)c5)O4)c4ccc(O)c(c4)-c4c(O)cc(O)cc4C(C(=O)NCCOCCOCCN)NC3=O)OC(CO)C(O)C2O)OC(C)C1O (centres unmarked) [Compound 2],MIC 50%,[1],0.015 µg/mL
same,MIC 90%,[1],0.03 µg/mL
same,MIC 50%,[2],0.06 µg/mL
same,MIC 90%,[2],0.12 µg/mL
same,MIC 50%,[3],0.06 µg/mL
same,MIC 90%,[3],0.12 µg/mL
same,modal MIC,[4]; MRSA,0.06 µg/mL
same,MIC 50%,[4],0.06 µg/mL
same,MIC 90%,[4],0.12 µg/mL
same,MIC 50%,[5],0.12 µg/mL
same,MIC 50%,[6],0.06 µg/mL
same,MIC 90%,[6],0.12 µg/mL
same,MIC 50%,[7],1 µg/mL
same,modal MIC,[8]; MSSA,0.03 µg/mL
same,MIC 50%,[8],0.03 µg/mL
same,MIC 90%,[8],0.12 µg/mL
same,MIC 50%,[9],2 µg/mL
same,MIC 90%,[9],4 µg/mL
same,MIC 50%,[10],0.03 µg/mL
same,MIC 90%,[10],0.06 µg/mL
same,Max Kill (maximum decrease from initial infection level),[11]; [19],−0.28 Log10 CFU/thigh
same,AUCc-t (AUC difference between control and treated animals),[11]; [19],29 (Log10 CFU/thigh)/hr
same,Max Kill (maximum decrease from initial infection level),[11]; [20],−1.01 Log10 CFU/thigh
same,AUCc-t (AUC difference between control and treated animals),[11]; [20],40.1 (Log10 CFU/thigh)/hr
same,Max Kill (maximum decrease from initial infection level),[11]; [21],−1.13 Log10 CFU/thigh
same,AUCc-t (AUC difference between control and treated animals),[11]; [21],55 (Log10 CFU/thigh)/hr
same,organism reduction across doses,"[11]; 1, 4 and 16 mg/kg intraperitoneal",organism reduction over the entire dose range
same,in vivo efficacy against S. aureus (in words),[11],bactericidal characteristics and prolonged in vivo activity
same,MIC 50%,[12],1 µg/mL
same,MIC 90%,[12],2 µg/mL
same,fold more potent than teicoplanin and daptomycin,[13],two- to four
same,fold more potent than vancomycin,[13],four- to eight
same,MIC 50%,[13],0.03 µg/mL
same,MIC 90%,[13],0.12 µg/mL
same,MIC 50%,[14],0.015 µg/mL
same,MIC 90%,[14],0.03 µg/mL
same,MIC 50%,[15],0.06 µg/mL
same,MIC 90%,[15],0.12 µg/mL
same,MIC 50%,[16],0.06 µg/mL
same,MIC 90%,[16],0.12 µg/mL
same,MIC,[17],0.03 µg/mL
same,fold more potent than linezolid,[18]; S. pneumoniae,32 fold
same,MIC 50%,[18],0.015 µg/mL
same,MIC 90%,[18],0.03 µg/mL
CNC(CC(C)C)C(=O)NC1C(=O)NC(CC(N)=O)C(=O)NC2C(=O)NC3C(=O)NC(C(=O)NC(C(=O)NCCOCCOCCOCCN)c4cc(O)c(CNCCOCCOCCOCCN)c(O)c4-c4cc3ccc4O)C(O)c3ccc(c(Cl)c3)Oc3cc2cc(c3OC2OC(CO)C(O)C(O)C2OC2CC(C)(NCc3ccc(-c4ccc(Cl)cc4)cc3)C(O)C(C)O2)Oc2ccc(cc2Cl)C1O (centres unmarked) [Compound 24],MIC,[17],0.03 µg/mL
CNC(CC(C)C)C(=O)NC1C(=O)NC(CC(N)=O)C(=O)NC2C(=O)NC3C(=O)NC(C(=O)NC(C(=O)O)c4cc(O)c(CNCCOCCOCC[N+](C)(C)C)c(O)c4-c4cc3ccc4O)C(O)c3ccc(c(Cl)c3)Oc3cc2cc(c3OC2OC(CO)C(O)C(O)C2OC2CC(C)(NCc3ccc(OCc4ccc(Cl)c(Cl)c4)cc3)C(O)C(C)O2)Oc2ccc(cc2Cl)C1O (centres unmarked) [Compound 29],MIC 50%,[1],0.06 µg/mL
same,MIC 90%,[1],0.06 µg/mL
same,MIC 50%,[2],0.12 µg/mL
same,MIC 90%,[2],0.12 µg/mL
same,MIC 50%,[3],0.12 µg/mL
same,MIC 90%,[3],0.5 µg/mL
same,MIC 50%,[4],0.06 µg/mL
same,MIC 90%,[4],0.12 µg/mL
same,MIC 50%,[5],0.25 µg/mL
same,MIC 50%,[6],0.06 µg/mL
same,MIC 90%,[6],0.25 µg/mL
same,MIC 50%,[7],4 µg/mL
same,MIC 50%,[8],0.06 µg/mL
same,MIC 90%,[8],0.12 µg/mL
same,MIC 50%,[9],4 µg/mL
same,MIC 90%,[9],4 µg/mL
same,MIC 50%,[10],0.03 µg/mL
same,MIC 90%,[10],0.06 µg/mL
same,Max Kill (maximum decrease from initial infection level),[11]; [19],0.08 Log10 CFU/thigh
same,AUCc-t (AUC difference between control and treated animals),[11]; [19],17.7 (Log10 CFU/thigh)/hr
same,Max Kill (maximum decrease from initial infection level),[11]; [20],0.07 Log10 CFU/thigh
same,AUCc-t (AUC difference between control and treated animals),[11]; [20],22.6 (Log10 CFU/thigh)/hr
same,Max Kill (maximum decrease from initial infection level),[11]; [21],−1.05 Log10 CFU/thigh
same,AUCc-t (AUC difference between control and treated animals),[11]; [21],45.2 (Log10 CFU/thigh)/hr
same,in vivo efficacy against S. aureus (in words),[11],bactericidal characteristics and prolonged in vivo activity
same,MIC 50%,[12],1 µg/mL
same,MIC 90%,[12],2 µg/mL
same,fold more potent than teicoplanin and daptomycin,[13],two- to four
same,fold more potent than vancomycin,[13],four- to eight
same,MIC 50%,[13],0.03 µg/mL
same,MIC 90%,[13],0.12 µg/mL
same,MIC 50%,[14],0.03 µg/mL
same,MIC 90%,[14],0.06 µg/mL
same,MIC 50%,[15],0.06 µg/mL
same,MIC 90%,[15],0.12 µg/mL
same,MIC 50%,[16],0.12 µg/mL
same,MIC 90%,[16],0.12 µg/mL
same,MIC,[17],0.03 µg/mL
same,MIC 50%,[18],0.03 µg/mL
same,MIC 90%,[18],0.06 µg/mL
CNC(CC(C)C)C(=O)NC1C(=O)NC(CC(N)=O)C(=O)NC2C(=O)NC3C(=O)NC(C(=O)NC(C(=O)NCCOCCOCCOCCN(C)C)c4cc(O)c(CNCCOCCOCCOCCN(C)C)c(O)c4-c4cc3ccc4O)C(O)c3ccc(c(Cl)c3)Oc3cc2cc(c3OC2OC(CO)C(O)C(O)C2OC2CC(C)(NCc3ccc(-c4ccc(Cl)cc4)cc3)C(O)C(C)O2)Oc2ccc(cc2Cl)C1O (centres unmarked) [Compound 23],MIC,[17],0.12 µg/mL
